Results from US20150133493A1, “COUMARIN-BASED COMPOUNDS FOR THE TREATMENT OF ALZHEIMER'S DISEASE AND CANCER” (Sloan-Kettering Institute for Cancer Research, priority 2008, published 2015).
Entries after “also recorded” stand apart in the source; their conditions may differ.

Tests used:
[1] = system: N2a mouse neuroblastoma cells that stably express Swedish-mutated APP; assay: Cell-based assay of secreted Aβ42, Aβ40, Aβ38 in APPsw-N2A cells; conditions: 24 hrs, in words, CS-1 up to 30 μM
Method: FIG. 3. Cellular evaluation of the coumarin-dimer CS-1 and its selective inhibition of Aβ42. Compounds were incubated with the APPsw-N2A mouse neuroblastoma cells for 24 hours and media were analyzed by biotinylated 4G8 and ruthenylated antibodies specific for each respective cleavage product. […] (d) Immunoprecipitation mass spectrometry analysis of CS-1 effect on secreted β-amyloid species. Aβ peptides were immunoprecipitated using 4G8 antibody and isolated with Protein G+/A agarose beads. Samples were analyzed by MALDI-MS. Samples shown are representative and each data point was performed in triplicate. (e) Cell-based Notch cleavage assay. HEK-293 cells were transfected with ΔE Notch construct and then Compound E and CS-1 were evaluated for their ability to inhibit γ-secretase-mediated Notch intracellular domain production. […] Western blot is representative and was performed in triplicate. (f) Effect of CS-1 on AICD production. N2A APPsw cell membrane was prepared and incubated with the indicated concentrations of CS-1 at 37° C. for 2 hours. The generated AICD and APP-CTFs were detected by Western Blotting using APPc antibody. Western blot is representative and was performed in triplicate.
We next set out to determine if the selective inhibition of Aβ42 was maintained in a cell-based system for APP processing. First, we compared our lead compound CS-1 (FIG. 3a) to Compound E (FIG. 3b) and the GSM compound indomethacin (FIG. 3c). N2a mouse neuroblastoma cells that stably express Swedish-mutated APP substrate were treated with the indicated compounds for 24 hrs at 37° C. Following 24 hr incubation period, the medium was collected from the cells and assayed for secreted Aβ42, Aβ40, and Aβ38. […] The result for indomethacin mirrored those findings by Kukar et al. whereby a different cell-based system was utilized (17), further validating our assay system for analysis of these Aβ species. […] This may reflect subtle variations between the cellular and in vitro conformations of γ-secretase. Nevertheless, the cell-based studies confirmed that CS-1 maintains a preference for inhibition of the γ-secretase mediated production of Aβ42 over Aβ40 or Aβ38, which is distinct to previously reported GSMs (17) and inhibitors (14-15, 18).
Cell membranes and solubilized γ-secretase were prepared as described previously (36). The in vitro and cell γ-secretase assays detecting either Aβ38, Aβ40, or Aβ42 cleavage were performed similar as previously described (21, 36). Cleaved product was detected using ruthenylated antibodies that recognize specific APP cleavage sites (Aβ31-38*, G2-10*, or G2-11* antibody for Aβ38, Aβ40, or Aβ42 respectively). The Km and Vmax in the presence and absence of γ-secretase inhibitors were analyzed by non-linear curve fit using the software SigmaPlot 8.0 with the Michaelis-Menten equation (v=Vm [S]/(Km+[S]; v: initial rate; Vm: maximum velocity; Km: the Michaelis-Menten constant, S: substrate).

[2] = system: HEK-293 cells transfected with ΔE Notch construct; assay: Cell-based Notch cleavage assay (NICD production); conditions: HEK-293, ΔE Notch, 24 hrs; Western blot; CS-1 up to 30 μM
Method: FIG. 3. Cellular evaluation of the coumarin-dimer CS-1 and its selective inhibition of Aβ42. Compounds were incubated with the APPsw-N2A mouse neuroblastoma cells for 24 hours and media were analyzed by biotinylated 4G8 and ruthenylated antibodies specific for each respective cleavage product. […] (d) Immunoprecipitation mass spectrometry analysis of CS-1 effect on secreted β-amyloid species. Aβ peptides were immunoprecipitated using 4G8 antibody and isolated with Protein G+/A agarose beads. Samples were analyzed by MALDI-MS. Samples shown are representative and each data point was performed in triplicate. (e) Cell-based Notch cleavage assay. HEK-293 cells were transfected with ΔE Notch construct and then Compound E and CS-1 were evaluated for their ability to inhibit γ-secretase-mediated Notch intracellular domain production. […] The generated AICD and APP-CTFs were detected by Western Blotting using APPc antibody. […]
We next determined the ability of CS-1 to suppress cellular γ-secretase activity for Notch1 cleavage. […]
ΔE Notch or empty pcDNA3.1(−) construct was transfected into HEK-293 cells in a 6-well format using Lipofectamine reagent, following manufacturer's instructions. […] Samples were then centrifuged at 13,000 rpm's at 4° C. and the supernatent was collected and analyzed by Western analysis using either anti-Myc antibody at a 1:1000 dilution or anti-NICD-1 SM320 at a 1:500 dilution.

## C[C@H](NC(=O)Cc1cc(F)cc(F)c1)C(=O)N[C@H]1N=C(c2ccccc2)c2ccccc2N(C)C1=O [Compound E]
[1]
  effect on secreted Aβ38 production: no inhibitory selectivity; also recorded: inhibited the production of all three β-amyloid species with equal potency
  effect on secreted Aβ40 production: no inhibitory selectivity; also recorded: inhibited the production of all three β-amyloid species with equal potency
  effect on secreted Aβ42 production: no inhibitory selectivity; also recorded: inhibited the production of all three β-amyloid species with equal potency
[2]
  effect on Notch intracellular domain (NICD) production: able to prevent production of NICD; also recorded: effectively blocked all production
